Data set [1] in a line: Plasma arginine and citrulline levels following stimulating agent dosing (LC-MRM/MS). Format: in vivo. The procedure:
Plasma samples from each of Groups A, B, and C were taken from each subject prior to dosing (baseline) and at 30 minute intervals thereafter up to 180 minutes after dosing (30, 60, 90, 120, and 180 minutes). The pre-dosing sample for each subject is used as a baseline from which to compare any increase or decrease in arginine and/or citrulline plasma levels.
Internal standard (IS) solution of arginine-13C6 and citrulline-d7 were prepared in 6 percent trichloroacetic acid solution. Standard substances of arginine and citrulline were precisely weighed and dissolved in SigMatrix Ultra Serum Diluent to make their stock solutions, at 2000 or 4000 µM for each compound. The stock solutions were then mixed and further diluted with SigMatrix Ultra Serum Diluent to have 9 serially diluted calibration solutions. The concentrations of each compound in the calibration solutions ranged from 0.0008 to 50 μM.
Plasma samples were thawed at room temperature. After vortex-mixing for 5 s, 50 μL of each sample was precisely aliquoted into a 1.5-mL Eppendorf safe-lock tube. […] Twelve 50-μL aliquots of this pooled plasma sample were processed in parallel and analyzed periodically, along with the preparation and analysis of the batch samples and the calibration solutions for the purpose of quality control (QC) to monitor the analytical variations of the sample preparation and the assay. […]

Data set [2] can be described thus: Saturated solubility in deionized water at 62° F. As to conditions: 16.7 °C, thermodynamic from solid. The procedure: Add five grams of conjugate or blend into 100 mL of water in a 250 ml Beaker. • 2. Record temperature of water before adding conjugate or blend. • 3. After conjugate is added to water, stir or swirl solution for 2 minutes exactly. • 4. If the solution is still cloudy or precipitate is present after 2 minutes, promptly transfer mixture into filter. • 5. If the solution is not cloudy and all of conjugate appears to have gone into solution, add another five grams of conjugate and repeat on from step 3. • 6. Record all data and amounts of conjugate added. • 7. Once solution with precipitate has been filtered, dry the filter with conjugate and use mass by difference to record dry mass of conjugate.
(§1) The solution was filtered, dried, and massed.
as §1, §1, §1, §1

Data set [3] in a line: Urine arginine and citrulline levels following stimulating agent dosing (LC-MRM/MS). The data set is classed as in vivo. The procedure: The subjects in each of Groups A and B were given a single 6 g dose (powder dissolved in about 4 oz of water). A urine sample is taken from each subject prior to dosing (baseline) and 24 hours after dosing. The pre-dosing sample for each subject is used as a baseline from which to compare any increase or decrease in arginine and/or citrulline urine levels. • Group A (8 subjects): 6 g of citrulline HCl in 4 oz. of water • Group B (8 subjects): 6 g of L-Citrulline in 4 oz. of water
A third group, consisting of seven subjects, were given a single 2 g dose, otherwise following the same protocol: • Group C (7 subjects): 2 g of citrulline HCl in 4 oz. of water
Internal standard (IS) solutions of arginine-13C6 and citrulline-d7 were prepared in 6 percent trichloroacetic acid solution. Standard substances of arginine and citrulline HCl were precisely weighed and dissolved in Sigmatrix Urine Diluent to make their stock solutions, at 5 mM for each compound. The two stock solutions were then mixed at an equal volume and the mixed standard solution was step by step diluted with Sigmatrix Urine Diluent to have nine serially diluted calibration solutions. The concentrations of each compound in the calibration solutions ranged from 0.015 to 250 μM.
Urine samples were thawed at room temperature. After vortex-mixing for 5 s, 100 μL of each sample was precisely aliquoted into a 1.5-mL Eppendorf safe-lock tube. A mixed urine sample was pooled from 100 μL of each of 10 randomly selected among all the urine samples. Nine 100-μL aliquots of this pooled urine sample were processed along with the batch samples and the calibration solutions for the purpose of quality control (QC) to monitor the analytical variations of the sample preparation and the assay.
To 100 μL of urine or 100 μL of each calibration solution, 100 μL of the IS solution was added. The mixtures were vortexed for 10 s at 3,000 rpm and then sonicated in an ice-water bath for 1 min, followed by centrifugal clarification at 21,000 g and 10° C. for 10 min. 100 μL of the clear supernatant of each solution was mixed with 900 μL of water. 4-μL aliquots of the resultant sample and calibration solutions were injected to run liquid chromatography-multiple reaction monitoring mass spectrometry (LC-MRM/MS) on an Agilent 1290 UHPLC system connected to an Agilent 6495B triple-quadrupole mass spectrometer, which was operated with positive-ion electrospray ionization and in the MRM mode using two pairs of MRM ion transitions and other MS parameters for arginine and citrulline, respectively.
A Waters HSS T3 UPLC column (2.1*100 mm, 1.8 μm) was used for the chromatographic separation and a 5-mM heptafluorobutyric acid solution and acetonitrile were used as the mobile phase for binary-solvent gradient elution under optimized conditions. LC-MRM/MS raw data files were acquired and processed using the Agilent MassHunter® software suite. For concentration calculations, linearly regressed calibration curves of arginine and citrulline were constructed respectively with the data acquired from the calibration solutions. Concentrations of the two compounds detected in urine were calculated by interpolating the calibration curve with the peak area ratios areas measured from the sample solutions, in an appropriate concentration range for each compound.

[4] abbreviates: single 6 g dose in 4 oz. of water, 24 hours after dosing.
Setting [5] is: single 6 g dose in 4 oz. of water, Baseline (prior to dosing).

Data on two compounds can be found in patent US20250064766A1, “COMPOSITIONS AND METHODS FOR INCREASING ARGININE AND NITRIC OXIDE LEVELS” (priority 2023, published 2025).

Structures are written as SMILES. Values after ≈ are worked out from the molar mass of the structure shown.

The solubility is how much of the substance goes into solution per volume.

In the case of `Cl.NC(=O)NCCC[C@H](N)C(=O)O` [Citrulline HCl, citrulline hydrochloride], the “arginine production per dose, comparison of Groups A-C (plasma)” value in data set [1] (single 2 g dose, normalized per dose) was “highest arginine production per dose”. Besides, in data set [2], the solubility at 2 min came to 149 mg/mL. For the same compound, in data set [3] (human, urine, oral, single 2 g dose in 4 oz. of water, 24 hours after dosing, read-out: Citrulline Urine Levels Total Average Amount), the concentration at 24 h stood at 17900 µM. The “percent increase in urine citrulline 24 hours after dosing per gram” value in data set [3] (single 2 g dose) and in data set [3] (single 6 g dose) was “about 300 percent/g” in each case. Besides, the “Citrulline Urine Levels Total Average Amount” value in data set [3] (single 2 g dose in 4 oz. of water, Baseline (prior to dosing)) was 2,471.80 μM; in data set [3] (setting [4]), 157,053.26 μM; in data set [3] (setting [5]), 8,773.04 μM.

Consider `NC(=O)NCCC[C@H](N)C(=O)O` [L-Citrulline, L-citrulline, reference compound], for which the “amount of citrulline in plasma, comparison of Groups A-C” value in data set [1] (single 6 g dose) is “much larger amount of citrulline in plasma”. The compound also registered a solubility at 2 min in data set [2] (water) of 49.8 mg/mL (≈ 284 mM). Further, the “percent increase in urine citrulline 24 hours after dosing per gram” value in data set [3] (single 6 g dose) is given as “about 1000 percent/g”. Further, the entries for the “Citrulline Urine Levels Total Average Amount” value in data set [3] (setting [4]) and in data set [3] (setting [5]) were 128,215.41 μM and 2,042.91 μM, respectively.
